Results: US10772886B2, “CXCR-2 inhibitors for treating crystal arthropathy disorders” (ARDEA BIOSCIENCES, INC., priority 2016, dated 2020)

How the values were obtained:
[1] = tested on: rat air pouch model of crystal-induced arthropathy (MSU); test: Rat air pouch model, Example 7 (Compounds 3 and 4 in combination with colchicine); format: in vivo
Protocol: Sodium hydroxide (40 g, Fisher Scientific) was dissolved in de-ionized water (100 mL, dH2O) to provide a 10N solution. Uric acid (16 g, Sigma) was added to de-ionized water (3400 mL) containing sodium hydroxide solution (11.8 mL, 10N) and heated to 60° C. with constant stirring. […] The resulting clear solution was cooled to 4-8° C., resulting in the formation of crystals, which were isolated by filtration, washed three times with de-ionized wa[…]) and dried at 37° C. The dried mono sodium urate crystals were sifted into an air-tight container for storage. […] Methylcellulose (0.4 g, Sigma) was dissolved in de-ionized water (100 mL) to provide a 0.4% solution used as vehicle. […] Test compounds were suspended in vehicle to provide the desired concentrations, and diluted accordingly. […] Male Sprague-Dawley rats (Charles River Laboratories, 160-180 g) were received, individually examined and housed in cages of five rats each. The animals were in apparent good health with no clinical signs of disease or distress. The rats were placed in quarantine with daily inspections, ear notched for identification purposes and shaved at the nape of the neck. The rats were anesthetized (isoflurane), and the nape of the neck was cleansed with 70% isopropanol (Butler Animal Health Supply) followed by povidone-iodine solution (Ricca Chemical Co.). Sterile air (30 mL, 0.2 μm, Millipore) was injected subcutaneously using a 23 G×11⁄2 inch needle fixed to a 30 mL syringe. The rats were returned to routine housing with no adverse reactions observed. The rats were anesthetized (isoflurane), and the nape of the neck was cleansed with 70% isopropanol (Butler Animal Health Supply) followed by povidone-iodine solution (Ricca Chemical Co.). Sterile air (15 mL, 0.11 μm, Millipore) was injected subcutaneously using a 23 G×11⁄2 inch needle fixed to a 20 mL syringe. The rats were returned to routine housing with no adverse reactions observed. The rats were weighed and sorted into treatment groups based on average body weight. As appropriate, the rats were dosed orally with test compound or vehicle (saline alone). […] Thirty minutes after SC injection or two hours after PO dosing, MSU (15 mL) was injected into the air pouch using an 18 G×2 inch needle fitted to a 20 mL syringe. Control group was injected with 15 mL sterile saline (vehicle). The injection sites were closed (collodion, Macron) and the rats returned to their cages with no adverse effects observed. Four hours after MSU/saline injection, the rats were anesthetized and heparinized saline (5 mL, 10 U/mL) was injected into the air pouch. […] An aliquot of the exudate was transferred to green Eppendorf tubes for total white blood cell (WBC) measurement. After allowing the MSU crystals to settle out for ten minutes, an aliquot of the exudate was transferred to heparinized microtainer tubes (Becton Dickinson) for differential white blood cell counts. The remainder of the exudate was centrifuged and an aliquot of the supernatants was dispensed to labeled clear Eppendorf tubes and stored at -80° C. The rats were exsanguinated into pre-chilled serum separator tubes, processed to serum, and 0.5 mL aliquot was stored at -80° C. in labeled Eppendorf tubes. […] [table]

[2] = tested on: rat air pouch model of crystal-induced arthropathy (MSU); test: Rat air pouch therapeutic model, Example 10 (Compounds 3 and 4 in combination with colchicine); format: in vivo
Protocol: Sodium hydroxide (40 g, Fisher Scientific) was dissolved in de-ionized water (100 mL, dH2O) to provide a 10N solution. Uric acid (16 g, Sigma) was added to de-ionized water (3400 mL) containing sodium hydroxide solution (11.8 mL, 10N) and heated to 60° C. with constant stirring. […] The resulting clear solution was cooled to 4-8° C., resulting in the formation of crystals, which were isolated by filtration, washed three times with de-ionized wa[…]) and dried at 37° C. The dried mono sodium urate crystals were sifted into an air-tight container for storage. […] Methylcellulose (0.4 g, Sigma) was dissolved in de-ionized water (100 mL) to provide a 0.4% solution used as vehicle. […] Test compounds were suspended in vehicle to provide the desired concentrations, and diluted accordingly. […] The animals were in apparent good health with no clinical signs of disease or distress. The rats were placed in quarantine with daily inspections, ear notched for identification purposes and shaved at the nape of the neck. The rats were anesthetized (isoflurane), and the nape of the neck was cleansed with 70% isopropanol (Butler Animal Health Supply) followed by povidone-iodine solution (Ricca Chemical Co.). Sterile air (30 mL, 0.2 μm, Millipore) was injected subcutaneously using a 23 G×11⁄2 inch needle fixed to a 30 mL syringe. The rats were returned to routine housing with no adverse reactions observed. The rats were anesthetized (isoflurane), and the nape of the neck was cleansed with 70% isopropanol (Butler Animal Health Supply) followed by povidone-iodine solution (Ricca Chemical Co.). Sterile air (15 mL, 0.11 μm, Millipore) was injected subcutaneously using a 23 G×11⁄2 inch needle fixed to a 20 mL syringe. The rats were returned to routine housing with no adverse reactions observed. The rats were weighed and sorted into treatment groups based on average body weight. As appropriate, the rats were dosed orally with test compound or vehicle (saline alone). […] Control group was injected with 15 mL sterile saline (vehicle). The injection sites were closed (collodion, Macron) and the rats returned to their cages with no adverse effects observed. Four hours after MSU/saline injection, the rats were anesthetized and heparinized saline (5 mL, 10 U/mL) was injected into the air pouch. […] An aliquot of the exudate was transferred to green Eppendorf tubes for total white blood cell (WBC) measurement. After allowing the MSU crystals to settle out for ten minutes, an aliquot of the exudate was transferred to heparinized microtainer tubes (Becton Dickinson) for differential white blood cell counts. The remainder of the exudate was centrifuged and an aliquot of the supernatants was dispensed to labeled clear Eppendorf tubes and stored at -80° C. The rats were exsanguinated into pre-chilled serum separator tubes, processed to serum, and 0.5 mL aliquot was stored at -80° C. in labeled Eppendorf tubes. […] 140 rats were used, divided into 14 groups of 10 animals, as follows: [table]

[3] = 1 umol/kg PO + Colchicine 0.1 mpk SC, Group 9
[4] = 10 μmol/kg PO + Colchicine 0.3 mg/kg SC, Groups 9, 14
[5] = 3.0 umol/kg PO + Colchicine 0.1 mpk SC, Group 10

SMILES | Avg Exudate Vol ([1]; 30 umol/kg PO, Groups 6, 8) | Avg Total WBC ([1]; 30 umol/kg PO, Groups 6, 8) | Neutrophils ([1]; 30 umol/kg PO, Groups 6, 8) | Avg Exudate Vol [2, 4] | Avg Tot WBC [2, 4] | Neutrophils [2, 4] | Avg Exudate Vol ([2]; 10 μmol/kg PO, Groups 6, 11) | Avg Tot WBC ([2]; 10 μmol/kg PO, Groups 6, 11) | Neutrophils ([2]; 10 μmol/kg PO, Groups 6, 11) | Avg Exudate Vol ([2]; 30 μmol/kg PO, Groups 7, 12) | Avg Tot WBC ([2]; 30 μmol/kg PO, Groups 7, 12) | Neutrophils ([2]; 30 μmol/kg PO, Groups 7, 12) | Avg Exudate Vol ([2]; 100 μmol/kg PO, Groups 8, 13) | Avg Tot WBC ([2]; 100 μmol/kg PO, Groups 8, 13) | Neutrophils ([2]; 100 μmol/kg PO, Groups 8, 13) | also measured
CC1CN(S(=O)(=O)Nc2cc(O[C@H](C)[C@@H](O)CO)nc(SCc3ccc(F)cc3)n2)C1 [Compound 4, N-(6-(((2R,3S)-3,4-dihydroxybutan-2-yl)oxy)-2-((4-fluorobenzyl)thio)pyrimidin-4-yl)-3-methylazetidine-1-sulfonamide] | 8.1 mL | 100 ×10^6 | 69.6 ×10^6 | 7.6 mL | 46 ×10^6 | 61.5 ×10^6 | 11.5 mL | 130 ×10^6 | 68.4 ×10^6 | 8.2 mL | 25 ×10^6 | 60.4 ×10^6 | 7.0 mL | 18 ×10^6 | 26.2 ×10^6 | Avg Exudate Vol [1, 3]: 10.3 mL; Avg Total WBC [1, 3]: 210 ×10^6; Neutrophils [1, 3]: 179 ×10^6; Avg Exudate Vol ([1]; 1 umol/kg PO, Group 7): 11.8 mL; Avg Total WBC ([1]; 1 umol/kg PO, Group 7): 160 ×10^6; Neutrophils ([1]; 1 umol/kg PO, Group 7): 121 ×10^6
COc1cc2c(c(OC)c1OC)-c1ccc(OC)c(=O)cc1[C@@H](NC(C)=O)CC2 [Colchicine, COLCHICINE, reference compound] | – | – | – | – | – | – | – | – | – | – | – | – | – | – | – | Avg Exudate Vol ([1]; 0.1 mpk SC, Group 3): 12 mL; Avg Total WBC ([1]; 0.1 mpk SC, Group 3): 240 ×10^6; Neutrophils ([1]; 0.1 mpk SC, Group 3): 205 ×10^6; Avg Exudate Vol ([1]; 1.0 mpk SC, Group 4): 6 mL; Avg Total WBC ([1]; 1.0 mpk SC, Group 4): 22 ×10^6; Neutrophils ([1]; 1.0 mpk SC, Group 4): 10.8 ×10^6; Avg Exudate Vol ([2]; 0.3 mpk SC, Group 3): 11.7 mL; Avg Tot WBC ([2]; 0.3 mpk SC, Group 3): 180 ×10^6; Neutrophils ([2]; 0.3 mpk SC, Group 3): 71.5 ×10^6; Avg Exudate Vol ([2]; 0.5 mpk SC, Group 4): 8.9 mL; Avg Tot WBC ([2]; 0.5 mpk SC, Group 4): 35 ×10^6; Neutrophils ([2]; 0.5 mpk SC, Group 4): 70.7 ×10^6; Avg Exudate Vol ([2]; 1.0 mpk SC, Group 5): 7.3 mL; Avg Tot WBC ([2]; 1.0 mpk SC, Group 5): 9.8 ×10^6; Neutrophils ([2]; 1.0 mpk SC, Group 5): 25.9 ×10^6
C[C@@H](Oc1cc(NS(=O)(=O)N2CCC2)nc(SCc2cccc(F)c2F)n1)[C@@H](O)CO [Compound 3, N-(2-((2,3-difluorobenzyl)thio)-6-(((2R,3S)-3,4-dihydroxybutan-2-yl)oxy)pyrimidin-4-yl)azetidine-1-sulfonamide] | 7.4 mL | 110 ×10^6 | 65.2 ×10^6 | 9.5 mL | 68 ×10^6 | 72.6 ×10^6 | 10.0 mL | 84 ×10^6 | 69.2 ×10^6 | 8.8 mL | 59 ×10^6 | 30.7 ×10^6 | 6.9 mL | 40 ×10^6 | 35.1 ×10^6 | Avg Exudate Vol [1, 5]: 7.8 mL; Avg Total WBC [1, 5]: 120 ×10^6; Neutrophils [1, 5]: 159 ×10^6; Avg Exudate Vol ([1]; 3 umol/kg PO, Group 5): 11.1 mL; Avg Total WBC ([1]; 3 umol/kg PO, Group 5): 180 ×10^6; Neutrophils ([1]; 3 umol/kg PO, Group 5): 133 ×10^6; Avg Exudate Vol ([2]; 3 μmol/kg PO, Group 10): 11.5 mL; Avg Tot WBC ([2]; 3 μmol/kg PO, Group 10): 120 ×10^6; Neutrophils ([2]; 3 μmol/kg PO, Group 10): 71.1 ×10^6
